{
  "source": "paper PMC6606765",
  "about": "“Stargazin and γ4 slow the channel opening and closing rates of GluA4 AMPA receptors” (Scientific Reports, 2019)",
  "key": {"GluA4 homomeric channels [1]": {"biological_target": "T1, GluA4 homomeric channels (Rattus norvegicus, UniProt P19493)", "T1 construct": "expressed in transfected cells; host or cells: HEK-293S", "T1 sequence (P19493 21-902 isoform P19493-2 limits assumed)": "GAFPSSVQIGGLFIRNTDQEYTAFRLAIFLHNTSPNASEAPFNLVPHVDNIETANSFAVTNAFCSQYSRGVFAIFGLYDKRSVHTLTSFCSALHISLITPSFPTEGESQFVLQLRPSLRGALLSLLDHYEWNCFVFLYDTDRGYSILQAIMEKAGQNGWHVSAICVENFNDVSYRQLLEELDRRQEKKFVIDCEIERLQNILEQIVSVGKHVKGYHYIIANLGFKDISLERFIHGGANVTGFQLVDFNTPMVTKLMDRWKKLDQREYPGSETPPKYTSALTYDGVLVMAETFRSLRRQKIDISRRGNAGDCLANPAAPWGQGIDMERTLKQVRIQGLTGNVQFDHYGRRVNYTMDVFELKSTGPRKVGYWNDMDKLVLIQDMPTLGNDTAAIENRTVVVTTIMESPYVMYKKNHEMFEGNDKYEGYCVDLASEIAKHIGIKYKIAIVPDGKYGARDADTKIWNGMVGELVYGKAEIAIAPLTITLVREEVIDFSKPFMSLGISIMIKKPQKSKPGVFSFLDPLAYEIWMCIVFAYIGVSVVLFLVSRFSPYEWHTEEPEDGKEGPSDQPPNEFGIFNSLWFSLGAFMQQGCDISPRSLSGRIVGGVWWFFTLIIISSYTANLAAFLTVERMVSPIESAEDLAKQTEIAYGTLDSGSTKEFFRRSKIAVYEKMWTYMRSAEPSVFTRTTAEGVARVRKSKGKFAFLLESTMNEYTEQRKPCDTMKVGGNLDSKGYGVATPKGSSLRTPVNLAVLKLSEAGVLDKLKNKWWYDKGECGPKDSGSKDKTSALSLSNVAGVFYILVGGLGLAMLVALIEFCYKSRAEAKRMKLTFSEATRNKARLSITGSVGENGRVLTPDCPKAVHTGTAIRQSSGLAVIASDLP", "assay": "Laser-pulse photolysis of caged glutamate with whole-cell current recording (channel-opening kinetics)", "type": "cell-based", "details": "linear fit of kobs vs glutamate concentration, Eq. 3, ±SEM", "procedure": "(§1) The γ-2 and γ-4 plasmids were generously provided by Prof. Susumu Tomita. The flip isoform of GluA4[30] with and without a TARP was transiently expressed in HEK-293S cell. The tissue culture and transfection procedure were described before. In brief, HEK-293S cells were cultured in Dulbecco’s modified Eagle’s medium supplemented with 10% fetal bovine serum, 100 U/mL penicillin, and 100 μg/mL streptomycin in a 37 °C, 6% CO2, humidified incubator. In co-transfecting a TARP, we used 1:1 and 1:2 weight ratio of the plasmid of GluA4 to a TARP (GluA4 plasmid was 3–6 μg/35 mm dish). Co-transfection also included green fluorescent protein (GFP) and large T-antigen (TAg)[46]. We also added a 2,3-benzodiazepine inhibitor[47] after transfection to prevent cell toxicity due to transfection of TARP. Transfected cells were grown for >48 h before recording.\n(§2) Briefly, the pipet solution or internal solution contained (in mM) 110 CsF, 30 CsCl, 4 NaCl, 0.5 CaCl2, 5 EGTA, and 10 HEPES (pH 7.4 adjusted by NaOH). The external cellular solution or bath solution contained (in mM) 150 NaCl, 3 KCl, 1 CaCl2, 1 MgCl2, and 10 HEPES (pH 7.4 adjusted by NaOH)[46]. The GFP fluorescence in transfected cells was visualized on an Axiovert S100 microscope with a fluorescent detection system from Carl Zeiss. The whole-cell current was recorded using an Axopatch-200B amplifier at a cutoff frequency of 2–20 kHz by a built-in, four-pole Bessel filter and digitized at 5–50 kHz sampling frequency using an Axon Digidata 1322 A. Unless otherwise noted, all experiments were performed with transfected HEK-293S cells voltage-clamped at −60 mV and at 22 °C.\n(§3) The laser-pulse photolysis technique was used to measure the channel-opening kinetic constants of an AMPA receptor, as we previously reported. […] A Minilite II pulsed Q-switched Nd:YAG laser (Continuum, Santa Clara, CA) delivered single pulses at 355 nm with a pulse length of 8 ns.\n(§4) The kop and kcl values were determined from the rising phase of a whole-cell current trace in a laser-pulse photolysis experiment. […] The observed first-order rate constant of channel opening, kobs, was estimated by using Eq. 22 It=Imax(1−e^−kobst) where It and Imax represent the whole-cell current amplitude at time t, and the maximum current amplitude, respectively. Based on the general mechanism of channel opening, Eq. 3 was derived to describe the relationship between kobs and ligand concentration:3 kobs=kcl+kop(L/L+K1)^n\n(§5) In deriving Eq. 3, we assumed the rate of ligand binding was fast relative to the rate of channel opening."}, "GluA4/γ2 [2]": {"biological_target": "T2, GluA4/γ2 (Rattus norvegicus, UniProt P19493)", "T2 construct": "expressed in transfected cells; host or cells: HEK-293S", "T2 sequence (P19493 21-902 isoform P19493-2 limits assumed)": "as above", "assay": "Laser-pulse photolysis of caged glutamate with whole-cell current recording (channel-opening kinetics)", "type": "cell-based", "procedure": "as §1, §2, §3, §4, §5"}, "GluA4/γ4 [3]": {"biological_target": "T3, GluA4/γ4 (Rattus norvegicus, UniProt P19493)", "T3 construct": "expressed in transfected cells; host or cells: HEK-293S", "T3 sequence (P19493 21-902 isoform P19493-2 limits assumed)": "as above", "assay": "Laser-pulse photolysis of caged glutamate with whole-cell current recording (channel-opening kinetics)", "type": "cell-based", "procedure": "as §1, §2, §3, §4, §5"}, "GluA4 homomeric channels [4]": {"biological_target": "T1, GluA4 homomeric channels", "design": "method as in PMID 15823042", "details": "GluA4 alone; cited from earlier work"}, "GluA4 homomeric channels [5]": {"biological_target": "T1, GluA4 homomeric channels", "assay": "Whole-cell current recording with fast solution flow (dose-response, desensitization) in transfected HEK-293 cells", "type": "cell-based", "procedure": "as §1, §2, §3\n(§6) Based on this general, minimal mechanism of channel opening, Eq. 1 was derived. In Eq. 1, IA is the observed amplitude of macroscopic current amplitude, IM is the current per mole of receptor, RM the number of moles of receptors on the cell surface, and Φ^−1 the channel opening equilibrium constant. A non-linear regression was performed to determine K1, along with other parameters, from a dose-response relationship. Each of the current traces was corrected for desensitization before it was used in calculating dose-response relationship[48].1 IA=IMRML^n/L^n+Φ(L+K1)^n"}, "GluA4/γ2 [6]": {"biological_target": "T2, GluA4/γ2", "assay": "Whole-cell current recording with fast solution flow (dose-response, desensitization) in transfected HEK-293 cells", "type": "cell-based", "procedure": "as §1, §2, §3, §6"}, "GluA4/γ4 [7]": {"biological_target": "T3, GluA4/γ4", "assay": "Whole-cell current recording with fast solution flow (dose-response, desensitization) in transfected HEK-293 cells", "type": "cell-based", "procedure": "as §1, §2, §3, §6"}, "[8]": {"details": "Table S2A nonlinear fitting, kcl fixed 1000 s-1"}, "[9]": {"details": "Table S2A nonlinear fitting, kcl fixed 1200 s-1"}, "[10]": {"details": "Table S2A nonlinear fitting, kcl fixed 1400 s-1"}, "[11]": {"details": "linear fit of kobs vs glutamate concentration, Eq. 3, ±SEM"}, "[12]": {"details": "Table S3A nonlinear fitting, kcl fixed 900 s-1"}, "[13]": {"details": "Table S3A nonlinear fitting, kcl fixed 1100 s-1"}, "[14]": {"details": "Table S3A nonlinear fitting, kcl fixed 1300 s-1"}, "[15]": {"details": "best fit of dose-response with Eq. 1"}, "[16]": {"details": "mean ±SD, saturated whole-cell responses evoked by 10 and 20 mM glutamate, HEK-293S, −60 mV, 22 °C"}},
  "note": "Several values for one entry are separate records, joined by “and”; a condition that tells them apart may be missing. Equal entries are not always repeated.",
  "data": [
    {"smiles": "N[C@@H](CCC(=O)O)C(=O)O", "note": "[glutamate]", "values": [
      {"measurement": "kcl (channel-closing rate constant)", "setting": "GluA4 homomeric channels [1]", "value": "3.4 ± 0.1 x 10^3 s^−1 and 3.39 ± 0.11 x 10^3 s^−1"},
      {"measurement": "kop (channel-opening rate constant)", "setting": "GluA4 homomeric channels [1]", "value": "6.4 ± 0.4 x10^4 s^−1 and 6.41 ± 0.44 x10^4 s^−1"},
      {"measurement": "Popen (channel-opening probability)", "setting": "GluA4/γ2 [2]; Popen = kop/(kop + kcl)", "value": "~ 0.93"},
      {"measurement": "kop, final output Ave.", "setting": "GluA4/γ2 [2]; [8]", "value": 17591, "unit": "s⁻¹"},
      {"measurement": "n, final output Ave.", "setting": "GluA4/γ2 [2]; [8]", "value": 1.59},
      {"measurement": "kop, final output Ave.", "setting": "GluA4/γ2 [2]; [9]", "value": 19225, "unit": "s⁻¹"},
      {"measurement": "n, final output Ave.", "setting": "GluA4/γ2 [2]; [9]", "value": 1.88},
      {"measurement": "kop, final output Ave.", "setting": "GluA4/γ2 [2]; [10]", "value": 22936, "unit": "s⁻¹"},
      {"measurement": "n, final output Ave.", "setting": "GluA4/γ2 [2]; [10]", "value": 2.11},
      {"measurement": "kop, final output Ave.", "setting": "GluA4/γ2 [2]; Table S2B nonlinear fitting, n fixed 2, kcl fixed 1000 s-1", "value": 15488, "unit": "s⁻¹"},
      {"measurement": "kop, final output Ave.", "setting": "GluA4/γ2 [2]; Table S2B nonlinear fitting, n fixed 2, kcl fixed 1200 s-1", "value": 15607, "unit": "s⁻¹"},
      {"measurement": "kop, final output Ave.", "setting": "GluA4/γ2 [2]; Table S2B nonlinear fitting, n fixed 2, kcl fixed 1400 s-1", "value": 18961, "unit": "s⁻¹"},
      {"measurement": "kcl (channel-closing rate constant)", "setting": "GluA4/γ2 [2]; [11]", "value": "1.2 ± 0.1 x 10^3 s^−1 and 1.17 ± 0.11 x 10^3 s^−1"},
      {"measurement": "kop (channel-opening rate constant)", "setting": "GluA4/γ2 [2]; [11]", "value": "1.3 ± 0.1 x10^4 s^−1 and 1.32 ± 0.12 x10^4 s^−1"},
      {"measurement": "Popen (channel-opening probability)", "setting": "GluA4/γ4 [3]; Popen = kop/(kop + kcl)", "value": "~ 0.93"},
      {"measurement": "kop, final output Ave.", "setting": "GluA4/γ4 [3]; [12]", "value": 16862, "unit": "s⁻¹"},
      {"measurement": "n, final output Ave.", "setting": "GluA4/γ4 [3]; [12]", "value": 1.99},
      {"measurement": "kop, final output Ave.", "setting": "GluA4/γ4 [3]; [13]", "value": 16375, "unit": "s⁻¹"},
      {"measurement": "n, final output Ave.", "setting": "GluA4/γ4 [3]; [13]", "value": 2.20},
      {"measurement": "kop, final output Ave.", "setting": "GluA4/γ4 [3]; [14]", "value": 15640, "unit": "s⁻¹"},
      {"measurement": "n, final output Ave.", "setting": "GluA4/γ4 [3]; [14]", "value": 2.41},
      {"measurement": "kop, final output Ave.", "setting": "GluA4/γ4 [3]; Table S3B nonlinear fitting, n fixed 2, kcl fixed 900 s-1", "value": 15152, "unit": "s⁻¹"},
      {"measurement": "kop, final output Ave.", "setting": "GluA4/γ4 [3]; Table S3B nonlinear fitting, n fixed 2, kcl fixed 1100 s-1", "value": 13642, "unit": "s⁻¹"},
      {"measurement": "kop, final output Ave.", "setting": "GluA4/γ4 [3]; Table S3B nonlinear fitting, n fixed 2, kcl fixed 1300 s-1", "value": 11557, "unit": "s⁻¹"},
      {"measurement": "kcl (channel-closing rate constant)", "setting": "GluA4/γ4 [3]; [11]", "value": "1.1 ± 0.1 x 10^3 s^−1 and 1.08 ± 0.05 x 10^3 s^−1"},
      {"measurement": "kop (channel-opening rate constant)", "setting": "GluA4/γ4 [3]; [11]", "value": "1.7 ± 0.2 x10^4 s^−1 and 1.70 ± 0.15 x10^4 s^−1"},
      {"measurement": "Popen (channel-opening probability)", "setting": "GluA4 homomeric channels [4]", "value": 0.96},
      {"measurement": "Φ (Φ^−1 = channel opening equilibrium constant)", "setting": "GluA4 homomeric channels [5]; [15]", "value": "0.36 ± 0.88"},
      {"measurement": "Hill Coefficient", "setting": "GluA4 homomeric channels [5]; dose-response curve", "value": "2.18 ± 0.21"},
      {"measurement": "kdes (maximum desensitization rate constant)", "setting": "GluA4 homomeric channels [5]; [16]", "value": "181 ± 7", "unit": "s⁻¹"},
      {"measurement": "Φ (Φ^−1 = channel opening equilibrium constant)", "setting": "GluA4/γ2 [6]; [15]", "value": "0.41 ± 0.95"},
      {"measurement": "Hill Coefficient", "setting": "GluA4/γ2 [6]; dose-response curve", "value": "1.07 ± 0.14"},
      {"measurement": "kdes (maximum desensitization rate constant)", "setting": "GluA4/γ2 [6]; [16]", "value": "135 ± 11", "unit": "s⁻¹"},
      {"measurement": "Φ (Φ^−1 = channel opening equilibrium constant)", "setting": "GluA4/γ4 [7]; [15]", "value": "0.39 ± 1.36"},
      {"measurement": "Hill Coefficient", "setting": "GluA4/γ4 [7]; dose-response curve", "value": "1.08 ± 0.10"},
      {"measurement": "kdes (maximum desensitization rate constant)", "setting": "GluA4/γ4 [7]; [16]", "value": "90 ± 12", "unit": "s⁻¹"}
    ]}
  ]
}
